Assay results published in patent US20210268030A1, “FIBROADIPOGENIC PROGENITOR-DERIVED EXOSOMES FOR REGENERATION OF DYSTROPHIC MUSCLES” (EXOFIX S.R.L., priority 2018, published 2021).

Legend:
[1] = system: miRs within FAP-derived exosomes; assay: Taqman-based miR expression microarray of FAP-derived exosomes; type: in vivo; details: mdx mice treated for 15 days with TSA vs control vehicle
Method: Total exosomal RNA was extracted with Total Exosome RNA Protein Isolation Kit (#4478545, Thermo Fisher Scientific). TaqMan MicroRNA Assays were performed according to the manufacturer's recommended protocols (Applied Biosystems) The threshold cycle (Ct) were defined as the fractional cycle number at which the fluorescence passes the fixed threshold. U6 snRNA served as an endogenous control for normalization.
In particular, total exosomal-RNA was retro-transcribed using TaqMan MicroRNA Reverse Transcription Kit (#4366596, ThermoFisher Scientific)
For greater sensitivity, the cDNA was pre-amplified using Taqman PREAMP master mix (#4391128, ThermoFisher Scientific) and Megaplex PreAMP Primers and then amplified using high multiplexed Megaplex Primer Pool (#4444766, ThermoFisher Scientific) and the TaqMan 2× Universal Master Mix II (#4440040, ThermoFisher Scientific) on TaqMan rodent MicroRNA A/B cards Array version 3.0 (#4444909, ThermoFisher Scientific).
We then determined the identity of the miRs within FAP-derived exosomes, by performing a Taqman-based miR expression microarray from exosomes isolated from the supernatant of FAPs derived by mdx mice treated for 15 days with TSA or control vehicle (CTR).

CD63 = assay: In situ immunofluorescence for CD63 on muscle sections; type: in vivo, mdx mice
Method: Animals were used at the specified age and treated for the indicated periods with daily intra peritoneal injections of Trichostatin A, TSA (0.6 mg/kg/day; #T8552, Sigma), dissolved in phospate-saline solution or in phospate-saline alone as vehicle control (CTR). Muscle injury was performed by intramuscular injection in Tibliais Anterior (TA) of Cardiotoxin—CTX− (10 μM, 10 mg/mL) (#L8102, Lotaxan Valence, France, http://www.latoxan.com), 3 days before mice sacrifice.
For immunofluorescence analysis, cryo-sections and cells were fixed in 4% PFA for 10 min and permeabilized with 100% cold acetone (#32201, Sigma) for 6 min at −20° C. or 100% cold Methanol (#32213, Sigma) for 6 min at −20° or with 0.25% Triton for 15 min at RT. Muscle sections were blocked for 1 h with a solution containing 4% BSA (#A7030, Sigma) in PBS. […] Sections were incubated with DAPI in PBS for 5 minutes for nuclear staining, washed in PBS, and mounted with glycerol 3:1 in PBS. […]

Q: For CC(/C=C/C(=O)NO)=C\[C@@H](C)C(=O)c1ccc(N(C)C)cc1 [TSA, Trichostatin A], which “miRs in exosomes from FAPs” value [1] is on record?
A: The value was “several miRs up-regulated”.

Q: And the “CD63 signal in the interstitium of muscles” value (CD63; 1 year-old mdx mice)?
A: Its value is “could not increase”.

Q: What about the CD63-positive interstitial signal (CD63; mdx young mice (1.5-month), compared to young mdx CTR) of the same compound?
A: The CD63-positive interstitial signal was “significant increase”.
